For test [1], the system named is H9. Kind of test: Concentration which inhibited HIV-1 replication by 50% in acutely infected H9 cells. It counts as functional, cell-based. Particulars: Homo sapiens.
For test [2], the system named is H9. Put plainly: Compound was tested for cytotoxic activity against acutely infected H9 cell growth. The format is functional, cell-based. The note with it: Homo sapiens.

Usually EC50 stands for the midpoint of the concentration-response curve. Lower therefore signals a more potent agent. Usually IC50 stands for the concentration that gives 50% inhibition. A lower IC50 goes with greater potency.

Structures are written as SMILES. In brackets after ≈: the same amount, converted by molar mass.

In test [1], `COc1ccc(C[C@@H]2COC(=O)[C@H]2Cc2ccccc2)cc1OC` registered an EC50 of 2.2 µg/mL (≈ 6.74 µM). This compound gave an IC50 in test [2] of 20 µg/mL (≈ 61.3 µM).
In turn, `COc1ccc(C[C@@H]2COC(=O)[C@H]2Cc2ccc(O)cc2)cc1OC` yielded a concentration giving a half-maximal response (EC50) in test [1] of 0.25 µg/mL (≈ 0.73 µM). In test [2], this compound had an IC50 of 0.8 µg/mL (≈ 2.34 µM).
As to `COc1ccc(C[C@@H]2COC(=O)C2)cc1OC`, the response in test [1] was half-maximal at 34 µg/mL (≈ 144 µM) (EC50). For the same compound, in test [2], 100 µg/mL (≈ 423 µM) corresponded to half-maximal inhibition (IC50).
Consider `COc1ccc(C[C@@H]2COC(=O)[C@H]2Cc2cccc(O)c2)cc1OC`, for which the EC50 in test [1] turned out to be 1.8 µg/mL (≈ 5.26 µM). Further, the IC50 in test [2] is 4 µg/mL (≈ 11.7 µM).
For `COc1ccc(C[C@@H]2COC(=O)[C@H]2Cc2ccc(O)c(O)c2)cc1OC`, the EC50 in test [1] stood at 1.5 µg/mL (≈ 4.19 µM). In test [2], this compound yielded an IC50 of 6 µg/mL (≈ 16.7 µM).
For `COc1cc(C[C@@H]2C(=O)OC[C@H]2Cc2ccc(OC)c(OC)c2)ccc1O`, the EC50 in test [1] came out at 0.16 µg/mL (≈ 0.43 µM). Besides, it took 0.8 µg/mL (≈ 2.15 µM) to reach half-maximal inhibition in test [2] (IC50).

The values above are taken from ChEMBL document CHEMBL1151590, “Synthesis and anti-HIV activity of dibenzylbutyrolactone lignans” (Bioorg Med Chem Lett, 1996).
